Results on one compound are retold here after US7423020B2, “Treatment of mood disorders by administration of SMR1” (Institut Pasteur, priority 2001, dated 2008).

The target of assay [1] is T1, NEP (Rattus norvegicus, UniProt P07861).
T1 construct: incubations of membrane and fresh tissue slice preparations from nervous tissues; from tissue; host or cells: rat spinal cord (dorsal zone), fresh slices or 100 000 x g membrane fraction
T1 sequence (P07861 1-750): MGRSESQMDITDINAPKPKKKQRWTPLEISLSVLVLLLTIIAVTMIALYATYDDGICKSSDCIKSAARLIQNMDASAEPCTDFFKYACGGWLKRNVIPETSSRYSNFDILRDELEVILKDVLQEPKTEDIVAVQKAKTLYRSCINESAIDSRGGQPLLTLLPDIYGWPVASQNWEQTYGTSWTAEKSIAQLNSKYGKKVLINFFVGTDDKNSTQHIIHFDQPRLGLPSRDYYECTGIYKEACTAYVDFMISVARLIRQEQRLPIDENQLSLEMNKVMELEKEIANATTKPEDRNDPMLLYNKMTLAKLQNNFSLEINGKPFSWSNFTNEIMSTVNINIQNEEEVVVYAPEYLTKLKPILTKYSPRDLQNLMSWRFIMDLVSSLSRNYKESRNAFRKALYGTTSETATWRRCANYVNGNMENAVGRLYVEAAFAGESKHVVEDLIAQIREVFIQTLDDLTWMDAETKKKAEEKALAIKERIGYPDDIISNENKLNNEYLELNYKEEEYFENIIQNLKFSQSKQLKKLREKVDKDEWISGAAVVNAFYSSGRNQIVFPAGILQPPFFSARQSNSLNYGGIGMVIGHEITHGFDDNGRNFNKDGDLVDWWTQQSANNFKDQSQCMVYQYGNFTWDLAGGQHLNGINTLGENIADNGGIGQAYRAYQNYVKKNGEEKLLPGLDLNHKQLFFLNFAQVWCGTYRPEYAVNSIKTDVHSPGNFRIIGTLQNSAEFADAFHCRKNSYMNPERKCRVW
Nature of the assay: Met-enkephalin hydrolysis by rat spinal cord slices and membrane preparations, RP-HPLC analysis. It counts as biochemical. Conditions: 10 μM; spinal cord slices; 20 min at 25° C.; Met-enkephalin 10 μM; read-out: inhibition of Met-enkephalin degradation (RP-HPLC). The procedure: The organs are rapidly removed, dissected on ice, freed of nerve fibers and of adipose tissues and then washed in cold oxygenated glucose-and bicarbonate-containing Krebs Ringer (KRBG) solution, whose composition is the following: 120 mM NaCl-5 mM KCl-1.2 mM KH2PO4-27.5 mM NaHCO3-2.6 mM CaCl2-0.67 mM MgSO4-5.9 mM glucose. The slices of tissues are prepared either manually with the aid of a scalpel (1-2 mm thick), or mechanically with the aid of a “Tissue Chopper” (1 mm thick). Slices are then dispersed into reaction tubes where they are subjected to three successive washes in ice-cold oxygenated KRBG. […] The organs dissected out and washed in ice-cold KRBG are homogenized at 4° C. in 10 volumes (vol./wt.) of 50 mM Tris/HCl buffered at pH 7.2, using a Teflon-glass homogenizer (3×5 sec.). A first centrifugation of 5 min. at 1000×g and 4° C. makes it possible to remove the tissular debris and the nuclei in the pellet. A second centrifugation of the supernatant at 100 000×g and 5° C. concentrates the membrane fraction into the pellet, which will be superficially washed three times with cold Tris/HCl buffer and resuspended in fresh buffer using a Kontes homogenizer, aliquoted and stored at -80° C. while waiting to be used as enzyme source, at least until three months. For the experiments of analysis of the NEP peptidase activity, an ex vivo model using incubations of membrane and fresh tissue slice preparations from nervous tissues that are known to be appropriate for exploring NEP peptidase activity: i.e. the dorsal zone of rat spinal cord, was first developed. The metabolism rate of the NEP-sensitive peptides was measured using the both NEP substrates involved in the signaling of the nociceptive response: the neuropeptides Met-enkephalin and Substance P. […] (NEN, 12.5-25 nM) were used. The objective was to measure the NEP-specific endoproteolysis of these substrates. […] Furthermore, for studying the functional role of […] NO: 1), the reaction was carried out in the presence of the SMR1-peptide alone or combined with specific inhibitors of membrane peptidases which could inactivate the […] NO: 1) peptide by cleaving its C-terminal end: an inhibitor of carboxypeptidase […], 10 μM, Sigma) and an inhibitor of dipeptidylpeptidase IV (DPPIV inhibitor, 10 μM, Roche). […] Samples are kept at -30° C. until the measurement of their intact substrate and its metabolites content. The membrane preparations are preincubated in 50 mM Tris/HCl buffered at pH 7.2 and containing 10 μM Bestatin, at 25, 30 or 37° C. in constantly shaken water, in the presence or in the absence of NEP inhibitor. […] Samples are kept at -30° C. until the measurement of their intact substrate and its metabolites content. HPLC is a highly resolutive procedure that allows one to isolate, and detect by coupled spectrophotometer analysis, the non-radioactive peptides whose concentration is at least 1 to 10 μM. The C-18 RP-HPLC is based on the same principle as the C-18 Sep-Pak cartridge. The chromatographic analyses were used to study the hydrolysis of Met-Enkephalin, that were done on a C-18 LUNA analytical column (150×4.6 mm inner diameter, AIT) packed with 5 μm-diameter beads. […] Their identification and relative quantification (peak height) are checked by continuously monitoring the UV absorbance at 254 nm of column outflow. In first series of experiment, the slices and the membrane preparations of spinal cord tissues were incubated at 30° C. in a 1 ml final volume of KRBG, and at 37° C. in a 0.25 ml final volume of Tris/HCl 50 mM, pH 7.2, respectively.

Assay [2] has as its target T1, NEP. In words: Met-enkephalin degradation by rat spinal cord slices, RIA assay. The class given is biochemical. Conditions: 10 μM; fresh spinal cord slices; 20 min at 25° C.; 10 μM Met-enkephalin. Here is the method:
For the experiments of analysis of the NEP peptidase activity, an ex vivo model using incubations of membrane and fresh tissue slice preparations from nervous tissues that are known to be appropriate for exploring NEP peptidase activity: i.e. the dorsal zone of rat spinal cord, was first developed. […] (NEN, 12.5-25 nM) were used.
The objective was to measure the NEP-specific endoproteolysis of these substrates.

One may read the inhibition as the share of the control response that was lost under treatment.

Molecules are shown by their SMILES. Where a SMILES comes first, the peptide text is derived from it.

In the case of `N=C(N)NCCC[C@H](NC(=O)[C@@H]1CCCN1C(=O)[C@H](CC(N)=O)NC(=O)[C@H](Cc1c[nH]cn1)NC(=O)[C@@H](N)CCC(N)=O)C(=O)O` [SMR1-QHNPR, QHNPR] (H-QHNPR-OH; N-terminus and C-terminus assumed), the inhibition at 10 µM at NEP [1] is 70%. Further, on NEP [2], the “protection of Met-enkephalin from degradation (RIA)” value is on record as 96%.
